Results as given in article PMC6628712 (Journal of enzyme inhibition and medicinal chemistry, 2016).

Tests used:
[1] = unbound fraction in plasma; ref [64]–[73]; cited from earlier work
[2] = following topical administration; ref [64]–[73]; cited from earlier work
[3] = target: T1, CYP26A1 (Homo sapiens, UniProt O43174); assay: Inhibition of CYP26A1-catalyzed tazarotenic acid sulfoxide formation; type: biochemical
T1 sequence (O43174 1-497): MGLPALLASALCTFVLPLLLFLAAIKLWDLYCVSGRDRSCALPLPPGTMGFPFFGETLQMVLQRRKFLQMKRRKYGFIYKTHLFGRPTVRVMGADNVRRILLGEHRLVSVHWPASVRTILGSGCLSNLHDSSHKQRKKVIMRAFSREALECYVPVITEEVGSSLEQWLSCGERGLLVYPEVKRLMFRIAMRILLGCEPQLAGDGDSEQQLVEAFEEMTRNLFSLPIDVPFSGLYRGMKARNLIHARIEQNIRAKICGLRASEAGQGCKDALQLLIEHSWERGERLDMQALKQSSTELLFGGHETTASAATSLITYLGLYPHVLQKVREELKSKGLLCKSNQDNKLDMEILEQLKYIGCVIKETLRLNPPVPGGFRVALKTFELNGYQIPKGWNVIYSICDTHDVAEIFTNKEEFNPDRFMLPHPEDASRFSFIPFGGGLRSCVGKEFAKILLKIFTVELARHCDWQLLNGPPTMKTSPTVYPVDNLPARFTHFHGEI

[4] = tested on: CYP26A1; conditions: in vitro; ref [97]; cited from earlier work
[5] = target: T2, CYP2C8 (Homo sapiens, UniProt P10632); assay: Spectral binding determination, CYP2C8; conditions: UV-difference spectra
T2 sequence (P10632 1-490): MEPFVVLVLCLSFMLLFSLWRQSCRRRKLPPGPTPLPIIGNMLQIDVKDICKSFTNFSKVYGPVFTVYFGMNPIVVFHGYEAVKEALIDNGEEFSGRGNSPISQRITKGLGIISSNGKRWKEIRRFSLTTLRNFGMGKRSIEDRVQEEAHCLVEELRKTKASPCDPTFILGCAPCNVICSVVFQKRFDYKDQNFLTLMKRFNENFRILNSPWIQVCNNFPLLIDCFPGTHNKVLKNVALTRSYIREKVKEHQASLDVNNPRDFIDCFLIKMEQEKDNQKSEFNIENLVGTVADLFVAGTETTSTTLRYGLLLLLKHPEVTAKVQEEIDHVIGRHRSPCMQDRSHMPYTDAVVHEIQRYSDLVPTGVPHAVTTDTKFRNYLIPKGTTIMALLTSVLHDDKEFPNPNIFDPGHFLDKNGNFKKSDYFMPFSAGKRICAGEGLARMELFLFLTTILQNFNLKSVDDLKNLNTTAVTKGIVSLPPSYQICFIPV

[6] = target: T1, CYP26A1; assay: Spectral binding determination, CYP26A1
[7] = target: T3, CYP26B1 (Homo sapiens, UniProt Q9NR63); assay: Inhibition of CYP26B1-catalyzed tazarotenic acid sulfoxide formation; type: biochemical
T3 sequence (Q9NR63 1-512): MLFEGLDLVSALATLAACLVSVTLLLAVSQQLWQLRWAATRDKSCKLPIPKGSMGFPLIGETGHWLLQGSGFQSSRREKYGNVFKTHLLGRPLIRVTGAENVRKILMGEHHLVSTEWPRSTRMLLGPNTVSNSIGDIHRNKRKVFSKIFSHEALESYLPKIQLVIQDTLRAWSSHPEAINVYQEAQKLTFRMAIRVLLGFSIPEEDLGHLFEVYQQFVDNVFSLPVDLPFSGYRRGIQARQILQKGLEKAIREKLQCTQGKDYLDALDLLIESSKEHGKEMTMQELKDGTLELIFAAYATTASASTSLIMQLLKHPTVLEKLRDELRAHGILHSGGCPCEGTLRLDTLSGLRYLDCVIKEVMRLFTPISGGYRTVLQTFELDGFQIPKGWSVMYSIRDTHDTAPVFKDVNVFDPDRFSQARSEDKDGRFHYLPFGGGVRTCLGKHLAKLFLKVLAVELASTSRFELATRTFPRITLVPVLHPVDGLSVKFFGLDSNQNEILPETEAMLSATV

[8] = tested on: CYP2C8; assay: In vitro free fraction by rapid equilibrium dialysis; type: in vitro ADME; conditions: human, pH 7.4, fu (IC50 assay), CYP2C8, conditions of CYP2C8 IC50 assay
[9] = human, in vivo
[10] = target: T3, CYP26B1; assay: Spectral binding determination, CYP26B1

IC50 ([3]; CYP26A1 IC50, probe tazarotenic acid): 0.0247 ± 0.0081 µM
IC50 ([3]; CYP26A1 IC50, tazarotenic acid, recombinant CYP26A1, probe tazarotenic acid sulfoxide formation, ± standard error): 0.02 ± 0.01 µM
IC50 ([3]; IC50,unb CYP26A1, IC50 corrected for unbound fraction in the assay): 0.0163 µM
Binding mechanism, CYP2C8 [5]: Type II
Kd ([6]; Ks (spectral binding constant), CYP26A1, 500 nM protein, ± standard error): 0.533 ± 0.0718 µM
Kd ([6]; Ks,unb CYP26A1, Ks corrected for nonspecific binding): 0.0133 µM
Binding mechanism, CYP26A1 ([6]; UV-difference spectra): Type II
IC50 ([7]; CYP26B1 IC50, probe tazarotenic acid): 0.0501 ± 0.0121 µM
IC50 ([7]; CYP26B1 IC50, tazarotenic acid, recombinant CYP26B1, probe tazarotenic acid sulfoxide formation, ± standard error): 0.05 ± 0.01 µM
IC50 ([7]; IC50,unb CYP26B1, IC50 corrected for unbound fraction in the assay): 0.0215 µM
fraction unbound at 12 h, 1 μM [8]: 0.155 ± 0.024
Cmax,u (skin) [9]: 6.73 µM
Kd ([10]; Ks (spectral binding constant), CYP26B1, 500 nM protein, ± standard error): 4.95 ± 0.64 µM
Kd ([10]; Ks,unb CYP26B1, Ks corrected for nonspecific binding): 0.0247 µM
Binding mechanism, CYP26B1 ([10]; UV-difference spectra): Type II
Compound: Clc1ccccc1C(c1ccccc1)(c1ccccc1)n1ccnc1 [Clotrimazole]
fu,plasma [1]: 0.100
Total skin concentration [2]: 67.3 µM
Inhibition of CYP26A1-catalyzed 4-hydroxyretinoic acid formation [4]: not be inhibitors
